# From patent US9572812B2, “Compositions and methods involving polymer, solvent, and high viscosity liquid carrier material” (DURECT CORPORATION, priority 2013, dated 2017)
# What was measured:
# [1] = Density and viscosity of placebo vehicle and formulation; assay type: physicochemical
# Source text: Formulation No. R66 consisted of SAIB/NMP/PLGA/RSP in the following weight proportion: 45.5/27.3/18.2/9.0. Formulation No. R131 consisted of SAIB/PC/PLGA/RSP in the following weight proportions 40.0/33.7/17.3/9.0. It should be noted that Formulation Nos. […] and […] were formulated to yield approximately the same viscosity (see below Table). However, to achieve similar viscosities, more PC must be added to the vehicle, with a corresponding decrease in SAIB (and a minor decrease in PLGA). [table] The difference in the above-noted settling versus the difference in vehicle density is notable. As shown in the first Table of this Example, the viscosity of the placebo vehicle for Formulation No. R66 at 5° C. is slightly higher than the viscosity of the placebo vehicle for Formulation No. R131 at 5° C. […] R131
# [2] = Risperidone solubility in vehicle / solvent; assay type: physicochemical; conditions: NMP versus PC
structure (smiles),measurement,setting,value
Cc1nc2n(c(=O)c1CCN1CCC(c3noc4cc(F)ccc34)CC1)CCCC2 [risperidone],density of risperidone,[1],1.30 g/mL
same,risperidone solubility in solvents,[2],higher solubility in NMP than in PC
